In the supplement of paper PMC10307832:

What was measured:
Test in all cases: relative viability (nuclei count vs DMSO), 5 days (fraction); higher = more cells survive
LK-2 = system: LK-2
Procedure, shortened: (§1)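 Lung cancer cell lines in 1536-well plates were dosed by pin tool the day after seeding, either with one drug alone or with a fixed anchor-drug dose plus five library-drug doses (not always all listed) in √10 steps. After 5 days, cells were fixed and their nuclei stained in one step (final 0.05% Triton X-100, 1% formaldehyde, 1 ug/ml Hoechst), then counted on 4× images. Relative viability is the nuclei count in treated wells divided by that in vehicle wells. Values are medians of duplicate plates.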

NCI-H1648 = system: NCI-H1648
Procedure, shortened: as §1

A-427 = system: A-427
Procedure, shortened: as §1

NCI-H1650 = system: NCI-H1650
Procedure, shortened: as §1

CAL-12T = system: CAL-12T
Procedure, shortened: as §1

NCI-H1623 = system: NCI-H1623
Procedure, shortened: as §1

UMC-11 = system: UMC-11
Procedure, shortened: as §1

NCI-H2009 = system: NCI-H2009
Procedure, shortened: as §1

NCI-H1734 = system: NCI-H1734
Procedure, shortened: as §1

CC(=O)O[C@@]12CO[C@@H]1C[C@H](O)[C@@]1(C)C(=O)[C@H](O)C3=C(C)[C@@H](OC(=O)[C@H](O)[C@@H](NC(=O)OC(C)(C)C)c4ccccc4)C[C@@](O)([C@@H](OC(=O)c4ccccc4)[C@H]21)C3(C)C [Docetaxel] + COc1cccc2cc(-c3nc([C@H]4CC[C@H](C(=O)O)CC4)n4ncnc(N)c34)[nH]c12 [OSI-027] (partner 0.5 µM)
relative viability (LK-2; first compound 0.0002 µM): 0.208 | relative viability (LK-2; first compound 0.000632 µM): 0.186 | relative viability (LK-2; first compound 0.002 µM): 0.159 | relative viability (LK-2; first compound 0.006325 µM): 0.171 | relative viability (LK-2; first compound 0.02 µM): 0.153 | relative viability (NCI-H1648; first compound 0.0002 µM): 0.28 | relative viability (NCI-H1648; first compound 0.000632 µM): 0.267 | relative viability (NCI-H1648; first compound 0.002 µM): 0.232 | relative viability (NCI-H1648; first compound 0.006325 µM): 0.218 | relative viability (NCI-H1648; first compound 0.02 µM): 0.248 | relative viability (A-427; first compound 0.0002 µM): 0.465 | relative viability (A-427; first compound 0.000632 µM): 0.435 | relative viability (A-427; first compound 0.002 µM): 0.224 | relative viability (A-427; first compound 0.006325 µM): 0.235 | relative viability (A-427; first compound 0.02 µM): 0.155 | relative viability (NCI-H1650; first compound 0.0002 µM): 0.473 | relative viability (NCI-H1650; first compound 0.000632 µM): 0.301 | relative viability (NCI-H1650; first compound 0.006325 µM): 0.188 | relative viability (NCI-H1650; first compound 0.02 µM): 0.115 | relative viability (CAL-12T; first compound 0.0002 µM): 0.44 | relative viability (CAL-12T; first compound 0.000632 µM): 0.272 | relative viability (CAL-12T; first compound 0.002 µM): 0.186 | relative viability (CAL-12T; first compound 0.02 µM): 0.111 | relative viability (NCI-H1623; first compound 0.0002 µM): 0.391 | relative viability (NCI-H1623; first compound 0.000632 µM): 0.438 | relative viability (NCI-H1623; first compound 0.002 µM): 0.339 | relative viability (NCI-H1623; first compound 0.006325 µM): 0.335 | relative viability (NCI-H1623; first compound 0.02 µM): 0.298 | relative viability (UMC-11; first compound 0.0002 µM): 0.433 | relative viability (UMC-11; first compound 0.000632 µM): 0.469 | relative viability (UMC-11; first compound 0.002 µM): 0.231 | relative viability (UMC-11; first compound 0.006325 µM): 0.244 | relative viability (UMC-11; first compound 0.02 µM): 0.175 | relative viability (NCI-H2009; first compound 0.0002 µM): 0.618 | relative viability (NCI-H2009; first compound 0.000632 µM): 0.66 | relative viability (NCI-H2009; first compound 0.002 µM): 0.491 | relative viability (NCI-H2009; first compound 0.006325 µM): 0.231 | relative viability (NCI-H2009; first compound 0.02 µM): 0.134 | relative viability (NCI-H1734; first compound 0.0002 µM): 0.573 | relative viability (NCI-H1734; first compound 0.000632 µM): 0.482 | relative viability (NCI-H1734; first compound 0.002 µM): 0.307 | relative viability (NCI-H1734; first compound 0.006325 µM): 0.35 | relative viability (NCI-H1734; first compound 0.02 µM): 0.242

Cc1sc2c(c1C)C(c1ccc(Cl)cc1)=N[C@@H](CC(=O)OC(C)(C)C)c1nnc(C)n1-2 [JQ1] + COc1cccc2cc(-c3nc([C@H]4CC[C@H](C(=O)O)CC4)n4ncnc(N)c34)[nH]c12 [OSI-027] (partner 0.5 µM)
relative viability (LK-2; first compound 0.04 µM): 0.204 | relative viability (LK-2; first compound 0.1265 µM): 0.21 | relative viability (LK-2; first compound 0.4 µM): 0.188 | relative viability (LK-2; first compound 1.265 µM): 0.122 | relative viability (LK-2; first compound 4 µM): 0.143 | relative viability (NCI-H1648; first compound 0.04 µM): 0.285 | relative viability (NCI-H1648; first compound 0.1265 µM): 0.287 | relative viability (NCI-H1648; first compound 0.4 µM): 0.304 | relative viability (NCI-H1648; first compound 1.265 µM): 0.206 | relative viability (NCI-H1648; first compound 4 µM): 0.274 | relative viability (A-427; first compound 0.04 µM): 0.468 | relative viability (A-427; first compound 0.1265 µM): 0.45 | relative viability (A-427; first compound 0.4 µM): 0.458 | relative viability (A-427; first compound 1.265 µM): 0.3 | relative viability (A-427; first compound 4 µM): 0.293 | relative viability (NCI-H1650; first compound 0.04 µM): 0.51 | relative viability (NCI-H1650; first compound 0.1265 µM): 0.447 | relative viability (NCI-H1650; first compound 0.4 µM): 0.328 | relative viability (NCI-H1650; first compound 1.265 µM): 0.153 | relative viability (NCI-H1650; first compound 4 µM): 0.206 | relative viability (CAL-12T; first compound 0.04 µM): 0.618 | relative viability (CAL-12T; first compound 0.1265 µM): 0.586 | relative viability (CAL-12T; first compound 0.4 µM): 0.32 | relative viability (CAL-12T; first compound 1.265 µM): 0.192 | relative viability (CAL-12T; first compound 4 µM): 0.173 | relative viability (NCI-H1623; first compound 0.04 µM): 0.446 | relative viability (NCI-H1623; first compound 0.1265 µM): 0.433 | relative viability (NCI-H1623; first compound 0.4 µM): 0.363 | relative viability (NCI-H1623; first compound 1.265 µM): 0.328 | relative viability (NCI-H1623; first compound 4 µM): 0.291 | relative viability (UMC-11; first compound 0.04 µM): 0.396 | relative viability (UMC-11; first compound 0.1265 µM): 0.399 | relative viability (UMC-11; first compound 0.4 µM): 0.258 | relative viability (UMC-11; first compound 1.265 µM): 0.192 | relative viability (UMC-11; first compound 4 µM): 0.182 | relative viability (NCI-H2009; first compound 0.04 µM): 0.558 | relative viability (NCI-H2009; first compound 0.1265 µM): 0.471 | relative viability (NCI-H2009; first compound 0.4 µM): 0.318 | relative viability (NCI-H2009; first compound 1.265 µM): 0.185 | relative viability (NCI-H2009; first compound 4 µM): 0.179 | relative viability (NCI-H1734; first compound 0.04 µM): 0.619 | relative viability (NCI-H1734; first compound 0.1265 µM): 0.508 | relative viability (NCI-H1734; first compound 0.4 µM): 0.601 | relative viability (NCI-H1734; first compound 1.265 µM): 0.354 | relative viability (NCI-H1734; first compound 4 µM): 0.413
